Experimental data from the NIST ThermoML archive (doi:10.1016/j.tca.2017.04.014).
± gives the expanded uncertainty stated by the source.

Assay: molar heat capacity at constant pressure; xn = mol fraction of the nth substance listed
Conditions: 101.3 kPa, Crystal, DSC

[O-2].[O-2].[Th+4] [thorium dioxide] + [O-2].[O-2].[U+4]
molar heat capacity at constant pressure [J/K/mol]
Conditions | x1 = 0.3 | x1 = 0.5 | x1 = 0.6 | x1 = 0.7 | x1 = 0.8 | x1 = 0.9 | x1 = 1
300 K | 73.2 ± 7.2 | 70.4 ± 8 | 67.7 ± 7 | 66.6 ± 6.8 | 66.7 ± 7.4 | 65.1 ± 7.4 | 62.1 ± 7.7
310 K | 73.7 ± 7.5 | 71.8 ± 8 | 69.3 ± 7.2 | 67.6 ± 6.9 | 67.3 ± 7.6 | 66.4 ± 7.8 | 61.8 ± 6.4
320 K | 75.6 ± 7.6 | 72.6 ± 8 | 70.2 ± 7 | 68.6 ± 6.9 | 67.9 ± 7.6 | 67.5 ± 7.8 | 62.8 ± 7.3
330 K | 75.9 ± 7.6 | 73.8 ± 8.3 | 71 ± 7.5 | 69.3 ± 6.9 | 69.1 ± 7.8 | 68 ± 7.8 | 63.5 ± 6
340 K | 76.7 ± 7.2 | 75.1 ± 8.4 | 71.9 ± 7.8 | 69.9 ± 6.9 | 69.7 ± 7.8 | 69 ± 8 | 64.2 ± 5.5
350 K | 78 ± 7.6 | 76.1 ± 9.1 | 72.6 ± 8.3 | 70.4 ± 7.1 | 70.8 ± 8 | 70.1 ± 8.2 | 65.1 ± 6.8
360 K | 78.6 ± 9 | 76.8 ± 9.1 | 73.3 ± 8.3 | 70.8 ± 7.1 | 72.1 ± 8 | 71.7 ± 8.3 | 65.6 ± 6.8
370 K | 78.9 ± 8.8 | 77 ± 8.8 | 74.5 ± 8.4 | 71.4 ± 7.3 | 72.3 ± 8 | 71.7 ± 8.3 | 65.9 ± 6.8
380 K | 79.8 ± 8.9 | 77.5 ± 9.6 | 75.1 ± 9.1 | 72 ± 8.3 | 72.3 ± 8.8 | 72 ± 8.2 | 66.8 ± 7.2
390 K | 80.2 ± 8.4 | 79 ± 8.6 | 75.8 ± 8.4 | 72.9 ± 7.7 | 74.1 ± 8.8 | 73 ± 8.3 | 67.3 ± 7.2
400 K | 80.8 ± 9.2 | 79.3 ± 9.6 | 76.4 ± 9.1 | 73.9 ± 8.4 | 74.8 ± 8.8 | 73.8 ± 8.1 | 67.7 ± 6.8
410 K | 81.3 ± 9.4 | 79.6 ± 10 | 76.8 ± 9.7 | 73.8 ± 8.5 | 74.8 ± 7.5 | 74.4 ± 7.2 | 68 ± 6.8
420 K | 81.5 ± 8.8 | 80.3 ± 9 | 77.3 ± 8.6 | 75.1 ± 7.2 | 75.4 ± 7.5 | 74.1 ± 7.4 | 68.4 ± 6.8
430 K | 82.1 ± 8.8 | 81.2 ± 9.2 | 77.5 ± 8.8 | 75.5 ± 7.2 | 75.9 ± 7.5 | 74.4 ± 7.4 | 68.6 ± 7.2
440 K | 82.3 ± 7.6 | 81.2 ± 7.9 | 77.9 ± 7.6 | 75.8 ± 6.8 | 76.4 ± 7.7 | 74.9 ± 7.4 | 68.9 ± 7.4
450 K | 83.3 ± 7.7 | 82.1 ± 8.1 | 78.6 ± 8 | 75.7 ± 6.4 | 76.9 ± 7.7 | 76 ± 7.6 | 69.6 ± 7.4
460 K | 83.7 ± 7.9 | 82.2 ± 8.5 | 79.4 ± 8.3 | 75.8 ± 6.5 | 77.2 ± 7.9 | 76.2 ± 7.6 | 69.8 ± 7.2
470 K | 83.9 ± 7.2 | 82.8 ± 8.3 | 79.5 ± 8.2 | 76.2 ± 7.2 | 77.5 ± 7.9 | 76.7 ± 7.8 | 70.1 ± 8.2
480 K | 84 ± 7.5 | 83.5 ± 8.6 | 80.2 ± 9 | 76.6 ± 7.6 | 77.3 ± 7.9 | 77 ± 7.8 | 70.2 ± 7.4
490 K | 84.5 ± 7.1 | 83 ± 6.7 | 80 ± 6.7 | 77.9 ± 6 | 78 ± 8.1 | 77 ± 7.8 | 70.5 ± 6.1
500 K | 84.9 ± 6.8 | 83.8 ± 6.5 | 80.7 ± 6.7 | 78.1 ± 5.8 | 78.8 ± 8.1 | 77 ± 8 | 70.7 ± 7.1
510 K | 85.5 ± 7.3 | 84.1 ± 7.1 | 80.7 ± 7.3 | 77.9 ± 6.1 | 78.6 ± 8.5 | 78.3 ± 8 | 70.9 ± 6.3
520 K | 85.3 ± 8.2 | 84.8 ± 8.7 | 81 ± 8.7 | 78.3 ± 6.3 | 79 ± 8.7 | 78.6 ± 8.2 | 71.2 ± 6.5
530 K | 85.5 ± 7.1 | 84.5 ± 7.1 | 81 ± 7.3 | 78.4 ± 6.3 | 79.6 ± 7.7 | 78.6 ± 7.3 | 71.4 ± 6.5
540 K | 86.4 ± 7.6 | 85 ± 7.3 | 81.5 ± 7.5 | 78.9 ± 6.5 | 79.7 ± 7.7 | 78.9 ± 7.3 | 71.7 ± 6.5
550 K | 86.6 ± 7.7 | 85.1 ± 7.6 | 82.9 ± 7.7 | 79.6 ± 6.9 | 80 ± 7.9 | 78.9 ± 7.3 | 71.9 ± 7.1
560 K | 86.7 ± 8.6 | 85.8 ± 7.9 | 82.8 ± 8.1 | 79.8 ± 7.1 | 80.2 ± 7.6 | 79.1 ± 7.1 | 72 ± 5.4
570 K | 86.7 ± 7.3 | 86.2 ± 8.1 | 82.8 ± 5 | 80.3 ± 6.4 | 80.1 ± 7.2 | 79.7 ± 7.8 | 72.1 ± 6.5
580 K | 87.1 ± 5.8 | 85.6 ± 7.2 | 83.4 ± 5.2 | 80.5 ± 6.4 | 80.2 ± 6.8 | 79.7 ± 8 | 72.3 ± 5.1
590 K | 87.4 ± 6 | 86.7 ± 5.6 | 83.4 ± 5.3 | 80.6 ± 5.1 | 80.5 ± 7.9 | 79.7 ± 7.3 | 72.5 ± 5.3
600 K | 88 ± 5.7 | 87 ± 5.1 | 83.7 ± 5.5 | 80.6 ± 5.3 | 80.6 ± 7.9 | 79.7 ± 7.3 | 72.5 ± 7.1
610 K | 87.5 ± 6 | 86.6 ± 4.7 | 84.4 ± 6 | 80.6 ± 5 | 80.6 ± 7.9 | 79.7 ± 7.3 | 72.5 ± 5.3
620 K | 88 ± 6.9 | 86.9 ± 5.2 | 84.8 ± 6 | 81.2 ± 5.3 | 80.6 ± 7.9 | 79.9 ± 7.5 | 73 ± 5.3
630 K | 88.5 ± 6.6 | 87.5 ± 5.5 | 84.2 ± 6.1 | 81.4 ± 5.1 | 81.1 ± 7.9 | 80.2 ± 7.5 | 73 ± 5.8
640 K | 88.7 ± 6.2 | 87.2 ± 5.6 | 85.1 ± 6 | 81.5 ± 5.2 | 81.1 ± 7.9 | 80.5 ± 7.5 | 73.3 ± 3.8
650 K | 88.9 ± 5.9 | 87.3 ± 5 | 85.1 ± 5.3 | 82 ± 4.7 | 80.9 ± 7.9 | 80.7 ± 7.5 | 73.6 ± 5.5
660 K | 89 ± 5.8 | 87.6 ± 4.7 | 84.9 ± 5.4 | 81.8 ± 4.6 | 81.6 ± 8 | 79.7 ± 7.5 | 73.5 ± 4
670 K | 88.9 ± 5.7 | 88.3 ± 4.6 | 85.8 ± 5.6 | 82.3 ± 4.8 | 81.9 ± 8.2 | 79.7 ± 7.3 | 73.6 ± 3.8
680 K | 89.4 ± 5.9 | 88.2 ± 4.8 | 86.4 ± 5.5 | 82.4 ± 4.9 | 81.5 ± 7.4 | 79.7 ± 7.3 | 73.6 ± 7.1
690 K | 90.2 ± 5.9 | 88.2 ± 5.2 | 86.4 ± 5.8 | 82.4 ± 5.3 | 81.6 ± 7.1 | 79.9 ± 7.3 | 73.4 ± 4
700 K | 90.4 ± 6 | 88.6 ± 4.9 | 86.4 ± 5.3 | 83.3 ± 4.8 | 81.7 ± 6.9 | 80.2 ± 4.6 | 73.8 ± 4
710 K | 91.2 ± 6.2 | 89.5 ± 5.3 | 86.4 ± 5.6 | 83.3 ± 4.7 | 82.2 ± 4.3 | 80.5 ± 4.6 | 74.5 ± 4
720 K | 91.9 ± 5.4 | 89.2 ± 5.1 | 86.7 ± 5.6 | 83.3 ± 4.9 | 82.4 ± 4.3 | 80.7 ± 4.6 | 74.5 ± 4
730 K | 92.2 ± 5.8 | 90.1 ± 5.1 | 87.3 ± 5.9 | 83.3 ± 5 | 82.7 ± 4.2 | 81.2 ± 4.6 | 74.6 ± 3.8
739 K | – | – | – | – | – | – | 74.7 ± 3.7
740 K | 92.9 ± 6 | 90.4 ± 5.4 | 87.7 ± 6 | 83.3 ± 5 | 82.7 ± 4.2 | 81.4 ± 4.6 | –
750 K | 93.1 ± 5.8 | 91 ± 5.5 | 87.8 ± 6 | 83.6 ± 4.9 | 82.7 ± 4.2 | 81.3 ± 4.8 | 74.6 ± 3.2
760 K | 93.5 ± 6.3 | 91 ± 5.3 | 89.1 ± 5.8 | 83.9 ± 5.1 | 82.9 ± 4.3 | 81.5 ± 4.9 | 75 ± 3.3
770 K | 94 ± 6.1 | 91.7 ± 5 | 89.1 ± 5.9 | 84.3 ± 5.2 | 82.8 ± 4.3 | 81.5 ± 4.9 | 75.3 ± 3.9
780 K | 94.2 ± 5.7 | 91.8 ± 5.3 | 89.1 ± 5.8 | 84.5 ± 5.3 | 83.1 ± 4.3 | 81 ± 4.7 | 75.3 ± 3.7
790 K | 94.3 ± 5.6 | 92.3 ± 5.1 | 89.1 ± 6.2 | 84.9 ± 5.3 | 83 ± 4.3 | 81.8 ± 4.9 | 75.3 ± 3.7
800 K | 94.4 ± 6.2 | 92.3 ± 5 | 89.1 ± 6.2 | 84.9 ± 5.2 | 83.3 ± 4.3 | 81.3 ± 4.9 | 75.7 ± 3.2
810 K | 95 ± 6.1 | 92.7 ± 5.3 | 89.8 ± 6.2 | 85.3 ± 5.3 | 83.1 ± 4.3 | 82.3 ± 4.9 | 75.7 ± 3.3
820 K | 95.3 ± 5.7 | 92 ± 5.3 | 90.2 ± 5.9 | 85.7 ± 5.7 | 83.2 ± 4.3 | 82.3 ± 4.9 | 75.7 ± 3.3
830 K | 95.6 ± 5.8 | 92.8 ± 5.1 | 89.5 ± 5.6 | 86 ± 5.1 | 83.3 ± 4.3 | 82.3 ± 4.9 | 75.9 ± 3.5
840 K | 96 ± 6.4 | 92.9 ± 5.5 | 90.3 ± 5.8 | 86 ± 5.4 | 83.5 ± 4.4 | 82.3 ± 3.7 | 76 ± 3.7
850 K | 96.1 ± 6.6 | 93.2 ± 5.6 | 90.7 ± 5.9 | 86 ± 5.4 | 83.6 ± 4.2 | 82.3 ± 4.3 | 76.1 ± 4.3
860 K | 96.1 ± 6.3 | 93.4 ± 5.5 | 90.7 ± 6 | 86 ± 5.8 | 83.7 ± 4.4 | 83.4 ± 4.2 | 76.4 ± 4
870 K | 96.3 ± 6.3 | 93.8 ± 5.1 | 90.8 ± 6 | 86.4 ± 5.5 | 84 ± 4.2 | 83.9 ± 4.5 | 76.1 ± 4.2
